The text below walks through data of US8779002B2, “Methods for treating a variety of diseases and conditions, and compounds useful therefor” (Salk Institute for Biological Studies, priority 2007, dated 2014).

One data set relates to Rabbit stroke. Nature of the data set: Rabbit stroke model. The note with it: in vivo. More on the design: key: + = positive result or enzyme activation.
The next data set has as its system p38. Nature of the data set: p38 phosphorylation caused by glutamate. In kind it is cell-based. The note with it: HT22 cells and primary cortical neurons. The text has this:
(§1) A panel of 14 protein kinases was screened against Cmpd CNB-001. […] In HT22 cells and primary cortical neurons, Cmpd CNB-001 blocked p38 and JNK phosphorylation caused by glutamate by about 30%, and inhibited cell death. The phosphorylation of the other tested kinases was not altered.

For the next data set, the system named is Amyloid. Put plainly: Amyloid dissociation. Also on record: key: + = positive result or enzyme activation.
The target of a further data set is JNK-3 (Homo sapiens, UniProt P53779). Nature of the data set: Protein kinase panel: JNK-3. In kind it is biochemical. The note with it: panel of 14 protein kinases.
Chain of JNK-3 (P53779 whole entry, species assumed): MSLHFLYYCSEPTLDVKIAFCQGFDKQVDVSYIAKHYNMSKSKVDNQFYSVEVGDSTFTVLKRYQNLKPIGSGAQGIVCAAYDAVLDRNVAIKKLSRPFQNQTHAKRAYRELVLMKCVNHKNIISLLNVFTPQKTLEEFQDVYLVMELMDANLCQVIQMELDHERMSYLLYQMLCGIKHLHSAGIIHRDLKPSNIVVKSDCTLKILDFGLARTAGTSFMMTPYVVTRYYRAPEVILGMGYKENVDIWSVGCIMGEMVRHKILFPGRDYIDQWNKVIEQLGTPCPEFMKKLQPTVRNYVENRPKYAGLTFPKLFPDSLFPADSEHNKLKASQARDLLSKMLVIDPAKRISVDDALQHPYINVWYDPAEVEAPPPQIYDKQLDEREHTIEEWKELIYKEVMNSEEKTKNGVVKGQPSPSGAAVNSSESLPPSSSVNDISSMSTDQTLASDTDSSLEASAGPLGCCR
From the text: as §1

The target of another data set is JNK-1 (Homo sapiens, UniProt P45983). Put plainly: Protein kinase panel: JNK-1. In kind it is biochemical. To be noted: panel of 14 protein kinases.
Chain of JNK-1 (P45983 whole entry, species assumed): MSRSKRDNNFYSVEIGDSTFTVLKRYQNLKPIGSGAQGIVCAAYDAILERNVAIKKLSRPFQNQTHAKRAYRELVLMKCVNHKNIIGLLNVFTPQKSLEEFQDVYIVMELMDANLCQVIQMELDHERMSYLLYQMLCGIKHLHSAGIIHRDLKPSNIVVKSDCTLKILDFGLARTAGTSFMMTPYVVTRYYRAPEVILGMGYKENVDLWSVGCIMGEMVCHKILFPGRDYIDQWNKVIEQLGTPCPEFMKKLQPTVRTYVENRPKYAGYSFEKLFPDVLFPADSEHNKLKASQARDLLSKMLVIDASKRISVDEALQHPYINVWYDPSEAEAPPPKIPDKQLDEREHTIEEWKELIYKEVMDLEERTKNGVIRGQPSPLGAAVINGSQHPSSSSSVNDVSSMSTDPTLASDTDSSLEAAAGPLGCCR
From the text: as §1

In a further data set the target is JNK-2 (Homo sapiens, UniProt P45984). Put plainly: Protein kinase panel: JNK-2. The format is biochemical. To be noted: panel of 14 protein kinases.
Chain of JNK-2 (P45984 whole entry, species assumed): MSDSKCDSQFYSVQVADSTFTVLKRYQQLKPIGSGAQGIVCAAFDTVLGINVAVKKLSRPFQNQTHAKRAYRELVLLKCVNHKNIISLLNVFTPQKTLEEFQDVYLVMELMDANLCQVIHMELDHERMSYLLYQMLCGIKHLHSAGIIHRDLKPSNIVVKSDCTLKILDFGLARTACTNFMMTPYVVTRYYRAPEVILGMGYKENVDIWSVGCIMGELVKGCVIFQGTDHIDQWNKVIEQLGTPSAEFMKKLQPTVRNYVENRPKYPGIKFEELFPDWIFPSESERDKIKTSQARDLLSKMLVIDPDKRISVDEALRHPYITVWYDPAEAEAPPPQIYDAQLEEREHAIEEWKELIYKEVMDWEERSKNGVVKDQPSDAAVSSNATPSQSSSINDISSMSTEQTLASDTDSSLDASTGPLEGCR
From the text: as §1

The next data set relates to JNK. Nature of the data set: JNK phosphorylation caused by glutamate. In kind it is cell-based. To be noted: HT22 cells and primary cortical neurons.
From the text: as §1

Data set [1] is described as follows: Plasma concentration and brain content after a single oral dose by gavage. The format is in vivo, mouse. To be noted: for concentration at 0 hr / concentration at 1 hr / concentration at 2 hr: female, mouse, BALB/c mice. As to the method:
The pharmacokinetic properties of a single oral dose of exemplary compounds according to the invention, i.e., Cmpd 11-001 and Cmpd J147, are studied in 10-week old female BALB/c mice. Cmpd 11-001 or J147 are emulsified in 2.5% carboxymethyl cellulose at a concentration of 20 mg/ml and administered by gavage at a dosage of 400 mg/kg body weight or 200 mg/kg body weight, respectively. The mice are then sacrificed at various intervals after administration (0, 1 hr, 2 hr, 4 hr, and 6 hr).
Plasma is obtained from blood (mixed with K3EDTA to prevent coagulation) by centrifugation at 4,300 g for 10 min, extracted twice with ethyl acetate/propanol (9:1, v/v). The extracts are centrifuged at 5,000 g for 10 min to form aqueous/organic layers. The organic layer containing Cmpd 11-001 is centrifuged at 20,000 g for 10 min to sediment particles. The extraction recovery from plasma is approximately 90%. Thirty μl thereof were analyzed by HPLC equipped with a C18 reversed phase column—Cmpd 11-001 is detected at 330 nm. The elution solvent system is 50% acetonitrile, 50% water and 1 g/L trifluoroacetic acid with a flow rate of 1 ml/min.
To study the distribution of compounds according to the invention in brain at various time intervals (0, 1 hr, 2 hr, 4 hr, and 6 hr) after gavage (400 mg/kg or 200 mg/kg as noted above), the mice are anesthetized with cloral hydrate and perfused through the heart with phosphate buffered saline (PBS) to remove blood in the brain. The mice are then decapitated, the brains removed, and quickly frozen and stored at −80° C. before further analysis. To measure the level of invention compound in the brain, weighed brain pieces are homogenized by sonication in 3 volumes of PBS. The homogenates are then extracted and measured by HPLC as described above.

Data set [2] concerns double transgenic (mutated PS1 and APP) Alzheimer's mouse model. Nature of the data set: Morris Water Maze in Alzheimer's mouse model. The format is in vivo. The note with it: in the food for 4 months at 100 ppm. The protocol: FIG. 7 illustrates that […] improves spatial learning and memory in the Morris Water Maze. A circular water tank four feet in diameter, containing water at 26-27° C., is made opaque with white pigment, and a platform placed in the NW quadrant. Mice were randomly introduced to the tank facing the wall in one of the other quadrants for a trial of 50 s or until they found the platform. Upon reaching the platform, or at the end of the 50 s, the mice were placed on the platform, the mice were left on the platform for 15 s. There were four trials per mouse each day for seven consecutive days. The data are presented as the average time to reach the platform (escape latency) of the 4 daily trials for each group of mice. There are 3 groups of 5 mice each. One is wild type (circles), another is a double transgenic (mutated PS1 and APP) Alzheimer's mouse model (rectangle), and the third is the AD mouse plus J147 that has been in the food for 4 months at 100 ppm (diamond).

Setting [3] is: brain, 200 mg/kg single oral dose by gavage, read-out: Brain content.
The mark [4] stands for this setting: plasma, 200 mg/kg single oral dose by gavage, read-out: Plasma concentration.

Structures are written as SMILES. Where two headings read alike, the source gives them in different places.

On to `COc1cc(/C=C/c2cc(/C=C/c3ccc(O)c(OC)c3)n(-c3ccccc3)n2)ccc1O` [CNB-001], for which, in the data set with Rabbit stroke, the “Animal Models, Rabbit stroke” value was “+”. Also, the “Block of p38 phosphorylation caused by glutamate” value in the data set with p38 was “about 30%”. The “Amyloid Dissociation” value with Amyloid is reported as “+”. The Inhibition of kinase result is listed as “partially inhibited” on JNK-3; “None of the other enzymes that were assayed, including JNK-1 or JNK-2, were affected” at JNK-1; “None of the other enzymes that were assayed, including JNK-1 or JNK-2, were affected” at JNK-2. The “Block of JNK phosphorylation caused by glutamate” value in the data set with JNK is “about 30%”.

`COc1cccc(/C=N/N(C(=O)C(F)(F)F)c2ccc(C)cc2C)c1` [Compound J147]: the “Time at which maximum plasma concentration is reached after administration” value in data set [1] (200 mg/kg single oral dose by gavage, mice) was “about 1 hr”. Besides, in data set [1] (setting [3]), the concentration at 0 hr was found to be 0 ng/g, the concentration at 1 hr is 3900 ng/g and the concentration at 2 hr turned out to be 2800 ng/g. In addition, in data set [1] (setting [4]), the concentration at 0 hr is 0 ng/mL, the concentration at 1 hr came out at 5600 ng/mL and the concentration at 2 hr turned out to be 300 ng/mL. Moreover, the “Retention in the brain” value in data set [1] (relative to 11-011, after oral gavage in mice) is on record as “improved ability to be retained in the brain”. Further, the “Deficit in memory of AD mice relative to wild type (escape latency)” value in [2] was “corrected”.
